Test results: patent publication US7468388B2, “Dimeric compounds and their use as anti-viral agents” (priority 2001, dated 2008)
≈ marks a conversion by molar mass, not a printed value.

Key:
[1] = tested on: A/New Caledonia/20/99 BVLV008 (H1N1); assay: Plaque reduction assay (PRA) in MDCK cells; type: cell-based; conditions: reduces plaque numbers by 50%
B/Harbin/7/95 BVLV008 = assay: Plaque reduction assay (PRA) in MDCK cells; type: cell-based; conditions: Influenza B virus, read-out: EC50 PRA B/Harb*
A/W SN/33 BVLV09 (H1N1) = assay: Plaque reduction assay (PRA) in MDCK cells; type: cell-based, influenza A (H1N1); conditions: reduces plaque numbers by 50%
[2] = tested on: A/Panama/2007/99 BVLV008 (H3N2); assay: Plaque reduction assay (PRA) in MDCK cells; type: cell-based; conditions: reduces plaque numbers by 50%
Influenza A/Sydney/5/97 = assay: Cytopathic effect (CPE) assay in MDCK cells, MTT readout; type: cell-based; conditions: concentration that inhibited CPE by 50%, up to 72 hours
[3] = tested on: B/Yamaneshl/166/98 BVLV007; assay: Plaque reduction assay (PRA) in MDCK cells; type: cell-based; conditions: Influenza B virus, read-out: EC50 PRA B/Yam*, reduces plaque numbers by 50%, MDCK cells

| Compound | EC50 PRA A/New* [1] [µg/mL] | EC50 (B/Harbin/7/95 BVLV008) [µg/mL] | EC50 PRA A/W SN* (A/W SN/33 BVLV09 (H1N1)) [µg/mL] | EC50 PRA A/Pan* [2] [µg/mL] | ID50 A/Sydney/5/97+ (Influenza A/Sydney/5/97) [µg/mL] | EC50 [3] [µg/mL] |
| --- | --- | --- | --- | --- | --- | --- |
| CC(=O)N[C@@H]1C(N=C(N)N)C=C(C(=O)O)O[C@H]1[C@H](O)[C@H](O)CO (single isomer, unassigned) [Compound A, 4-guanidino-2-deoxy-2,3-dehydro-N-acetylneuraminic acid] | 0.00023 (≈ 0.000692 µM) | 0.00019 (≈ 0.000572 µM) | > 0.1 | 0.003 (≈ 0.00903 µM) | 0.023 ± 0.024 (≈ 0.0692 µM) |  |
| NC12CC3CC(CC(C3)C1)C2 [Amantadine] |  |  |  |  |  | 2.08 (≈ 13.8 µM) |
